From paper PMC4423596 (Angewandte Chemie (International ed. in English), 2015)

Columns and labels:
MLL-KIX PPI site = conditions: cited from earlier work
CBP/p300 KIX domain [1] = target: T1, CBP/p300 KIX domain (Mus musculus, UniProt P45481); test: PrOF NMR ligand titration; format: binding
CBP/p300 KIX domain [2] = target: T1, CBP/p300 KIX domain; test: PrOF NMR chemical shift perturbation at fixed ligand concentration; format: binding; conditions: 3FY-labeled KIX; 833 µM to 5 mM small molecule

T1 sequence (P45481 586-665): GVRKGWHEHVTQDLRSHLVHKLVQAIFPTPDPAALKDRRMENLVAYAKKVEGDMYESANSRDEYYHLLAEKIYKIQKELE

SMILES	IC50 (MLL-KIX PPI site) [µM]	chemical shift perturbation (PrOF NMR), in words (CBP/p300 KIX domain [2])	also measured
CCCc1cc(OC)cc(O)c1C(=O)Oc1c(OC)cc(CCC)c(C(=O)O)c1O [sekikaic acid]	34	–	–
CC(C(=O)O)c1ccc(-c2ccccc2)c(F)c1 (stereo not drawn) [Flurbiprofen, flurbiprofen]	–	–	Kd (CBP/p300 KIX domain [1]): 5900 ± 600 µM; Ligand Efficiency (CBP/p300 KIX domain [1]; calculated from the PrOF Kd): 0.17 kcal mol^−1 NHA^−1
CCCCCc1c2c(cc(O)c1C(=O)O)OC(=O)c1c(cc(OC)cc1C(=O)CCCC)O2 [lobaric acid]	17	–	–
CC(C)Cc1ccc(C(C)C(=O)O)cc1 (stereo not drawn) [ibuprofen]	–	significant chemical shift perturbations	–
O=C(Nc1ccc(Cl)cc1)c1cc2ccccc2cc1OP(=O)(O)O [KG-501, Naphthol AS-E phosphate]	–	identified a binding interaction	–
